Test results reported in ChEMBL document CHEMBL3044715, “Synthesis, spectral studies and biological evaluation of a novel series of 2-substituted-5,6-diarylsubstituted imidazo(2,1-b)-1,3,4-thiadiazole derivatives as possible anti-tubercular agents” (Med Chem Res, 2012).
pIC50: −log10 of the molar value. Converted amounts (≈) assume the structure as drawn. The source made the active and inactive calls. The rule behind the calls is not given here.

What was measured:
[1] = test system: Mycobacterium tuberculosis; test: Antimycobacterial activity against Mycobacterium tuberculosis H37Rv ATCC 27294 after 5 days by Alamar blue assay; type: functional
Vero = test: Cytotoxicity against Chlorocebus aethiops (African green monkey) Vero cells after 72 hr by MTT assay; type: cell-based; conditions: Chlorocebus sabaeus

With `COc1ccc(-c2c(-c3ccccc3)nc3sc(-c4ccc(F)cc4)nn23)cc1` the MIC [1] was “inactive”.
For `COc1ccc(-c2nn3c(-c4ccccc4)c(-c4ccc(C)cc4)nc3s2)cc1`, the MIC [1] was “inactive”.
With `COc1ccc(-c2nn3c(-c4ccccc4)c(-c4ccc(SC)cc4)nc3s2)cc1` the MIC ([1]; H37Rv ATCC 27294, 120 h) was 10 µg/mL (≈ 23.3 µM) and the pIC50 (Vero) was 3.87.
`COc1ccc(-c2c(-c3ccc(SC)cc3)nc3sc(S(N)(=O)=O)nn23)cc1` showed an MIC ([1]; H37Rv ATCC 27294, 120 h) of 2.5 µg/mL (≈ 5.78 µM) and a pIC50 (Vero) of 3.67.
Work on `COc1ccc(-c2nc3sc(C(F)(F)F)nn3c2-c2ccc(OC)cc2)cc1` yielded an MIC ([1]; H37Rv ATCC 27294, 120 h) of 1.25 µg/mL (≈ 3.08 µM) and a pIC50 (Vero) of 3.83.
With `COc1ccc(-c2c(-c3ccccc3)nc3sc(C(F)(F)F)nn23)cc1` the MIC [1] was “inactive”.
With `COc1ccc(-c2c(-c3ccccc3)nc3sc(S(N)(=O)=O)nn23)cc1` the MIC ([1]; H37Rv ATCC 27294, 120 h) was 5 µg/mL (≈ 12.9 µM) and the pIC50 (Vero) was 3.69.
`COc1ccc(-c2nn3c(-c4ccc(OC)cc4)c(-c4ccc(SC)cc4)nc3s2)cc1` was tested, and the MIC ([1]; H37Rv ATCC 27294, 120 h) was 10 µg/mL (≈ 21.8 µM) and the pIC50 (Vero) was 3.92.
Work on `COc1ccc(-c2nc3sc(-c4ccc(F)cc4)nn3c2-c2ccc(OC)cc2)cc1` yielded an MIC ([1]; H37Rv ATCC 27294, 120 h) of 5 µg/mL (≈ 11.6 µM) and a pIC50 (Vero) of 3.79.
`Cc1ccc(-c2nc3sc(C(F)(F)F)nn3c2-c2ccccc2)cc1` was tested, and the MIC [1] was “inactive”.
In the case of `CSc1ccc(-c2nc3sc(S(N)(=O)=O)nn3c2-c2ccccc2)cc1`, the MIC ([1]; H37Rv ATCC 27294, 120 h) was 2.5 µg/mL (≈ 6.21 µM) and the pIC50 (Vero) was 3.72.
`Cc1ccc(-c2nc3sc(S(N)(=O)=O)nn3c2-c2ccccc2)cc1` showed an MIC ([1]; H37Rv ATCC 27294, 120 h) of 10 µg/mL (≈ 27 µM) and a pIC50 (Vero) of 3.77.
With `COc1ccc(-c2nc3sc(S(N)(=O)=O)nn3c2-c2ccc(OC)cc2)cc1` the MIC ([1]; H37Rv ATCC 27294, 120 h) was 1.25 µg/mL (≈ 3 µM) and the pIC50 (Vero) was 3.61.
`COc1ccc(-c2c(-c3ccc(SC)cc3)nc3sc(C(F)(F)F)nn23)cc1` showed an MIC ([1]; H37Rv ATCC 27294, 120 h) of 5 µg/mL (≈ 11.9 µM) and a pIC50 (Vero) of 3.91.
With `CSc1ccc(-c2nc3sc(-c4ccc(F)cc4)nn3c2-c2ccccc2)cc1` the MIC [1] was “inactive”.
Work on `CSc1ccc(-c2nc3sc(C(F)(F)F)nn3c2-c2ccccc2)cc1` yielded an MIC ([1]; H37Rv ATCC 27294, 120 h) of 10 µg/mL (≈ 25.5 µM) and a pIC50 (Vero) of 3.86.
For `COc1ccc(-c2nn3c(-c4ccc(OC)cc4)c(-c4ccc(OC)cc4)nc3s2)cc1`, the MIC ([1]; H37Rv ATCC 27294, 120 h) was 5 µg/mL (≈ 11.3 µM) and the pIC50 (Vero) was 3.79.
Molecule `NNC(=O)c1ccncc1` [ISONIAZID] has an MIC ([1]; H37Rv ATCC 27294, 120 h) of 0.25 µg/mL (≈ 1.82 µM) and a pIC50 (Vero) of less than 3.35.
In the case of `COc1ccc(-c2c(-c3ccc(SC)cc3)nc3sc(-c4ccc(F)cc4)nn23)cc1`, the MIC ([1]; H37Rv ATCC 27294, 120 h) was 10 µg/mL (≈ 22.3 µM) and the pIC50 (Vero) was 3.94.
`COc1c(N2CCNC(C)C2)c(F)cc2c(=O)c(C(=O)O)cn(C3CC3)c12` (stereo not given) [GATIFLOXACIN] gave an MIC ([1]; H37Rv ATCC 27294, 120 h) of 1 µg/mL (≈ 2.66 µM) and a pIC50 (Vero) of less than 3.26.
